Experimental data published in patent US9994581B2, “Bromodomain inhibitors” (AbbVie Inc., priority 2013, dated 2018).

Assays:
BRD4 (BDI-BDII_K57-K550) = BRD4 (BDI-BDII_K57-K550) (Homo sapiens, UniProt O60885); test: TR-FRET bromodomain binding assay; details: His-tagged tandem bromodomain, Alexa647-labeled probe; Ki calculated from IC50s, probe Kd and probe concentration
Procedure: A time-resolved fluorescence resonance energy transfer (TR-FRET) assay was used to determine the affinities of compounds of the Examples listed in Table 1 for the tandem domain of bromodomain BRD4. […] An Alexa647-labeled BET-inhibitor was used as the fluorescent probe in the assay.
TR-FRET data were normalized to the means of 24 no-compound controls (“high”) and 8 controls containing 1 μM un-labeled probe (“low”). Percent inhibition was plotted as a function of compound concentration and the data were fit with the 4 parameter logistic equation to obtain IC50s. Inhibition constants (Ki) were calculated from the IC50s, probe Kd and probe concentration. Typical Z′ values were between 0.65 and 0.75.

[1] = system: breast cancer cell line MX-1; test: MX-1 cell line proliferation assay (3-day, Cell Titer Glo); assay type: cell-based; details: Homo sapiens, MX1, MX-1 cells, 72 hours, read-out: Cellular proliferation: EC50
Procedure: The impact of compounds of the Examples on cancer cell proliferation was determined using the breast cancer cell line MX-1 (ATCC) in a 3-day proliferation assay and the data are reported in Table 1. […] For compound testing, MX-1 cells were plated in 96-well black bottom plates at a density of 5000 cells/well in 90 μL of culture media and incubated at 37° overnight to allow cell adhesion and spreading. Compound dilution series were prepared in DMSO via a 3-fold serial dilution from 3 mM to 0.1 μM. The DMSO dilution series were then diluted 1:100 in phosphate buffered saline, and 10 μL of the resulted solution were added to the appropriate wells of the MX-1 cell plate. The final compound concentrations in the wells were 3, 1, 0.3, 0.1, 0.03, 0.01, 0.003, 0.001, 0.0003, and 0.0001 μM, or 1, 0.3, 0.1, 0.03, 0.01, 0.003, 0.001, 0.0003, 0.0001, and 0.00003 μM.
Luminescence readings from the Cell Titer Glo assay were normalized to the DMSO treated cells and analyzed using the GraphPad Prism software with sigmoidal curve fitting to obtain EC50s.

Row | SMILES | Ki (BRD4 (BDI-BDII_K57-K550)) | EC50 [1]
1 | CCS(=O)(=O)c1ccc2c(c1)-c1cn(C)c(=O)cc1OCCCCc1cccc(C)c1O2 [Example A-60, 17-(ethylsulfonyl)-2,13-dimethyl-6,7,8,9-tetrahydrodibenzo[4,5:7,8][1,6]dioxacyclododecino[3,2-c]pyridin-3(2H)-one] | 5.8 nM | 1.16 nM
2 | Cn1cc2c(cc1=O)OCCCCc1ccncc1Oc1ccc(N)cc1-2 [Example A-28, 17-amino-2-methyl-6,7,8,9-tetrahydrobenzo[4,5][1,6]dioxacyclododecino[3,2-c:7,8-c′]dipyridin-3(2H)-one] | 85.9 nM | > 1000 nM
3 | CCS(=O)(=O)Nc1ccc2c(c1)-c1cn(C)c(=O)cc1OCCN(C1CCC1)Cc1cc(Cl)ccc1O2 [Example B-14, N-(11-chloro-8-cyclobutyl-2-methyl-3-oxo-2,3,6,7,8,9-hexahydrodibenzo[f,i]pyrido[3,4-k][1,8,4]dioxazacyclododecin-17-yl)ethanesulfonamide] | 2.14 nM | 5.95 nM
4 | CCS(=O)(=O)c1cnc2c(c1)-c1cn(C)c(=O)cc1OCCCCc1cc(Cl)ccc1O2 [Example A-34, 11-chloro-17-(ethylsulfonyl)-2-methyl-6,7,8,9-tetrahydrobenzo[11,12][1,6]dioxacyclododecino[2,3-b:4,5-c′]dipyridin-3(2H)-one] | 6.92 nM | 33.3 nM
5 | CCS(=O)(=O)c1ccc2c(c1)-c1cn(C)c(=O)cc1OCCCCc1ccccc1O2 [Example A-4, 17-(ethylsulfonyl)-2-methyl-6,7,8,9-tetrahydrodibenzo[4,5:7,8][1,6]dioxacyclododecino[3,2-c]pyridin-3(2H)-one] | 3.07 nM | 10.4 nM
6 | Cn1cc2c(cc1=O)OCCCCc1cc(F)cc(F)c1Oc1ccc(S(=O)(=O)C3CC3)cc1-2 [Example A-21, 17-(cyclopropylsulfonyl)-11,13-difluoro-2-methyl-6,7,8,9-tetrahydrodibenzo[4,5:7,8][1,6]dioxacyclododecino[3,2-c]pyridin-3(2H)-one] | 0.88 nM | 5.71 nM
7 | Cn1cc2c(cc1=O)OCCCCc1cc(Cl)ccc1Oc1ncc(CO)cc1-2 [Example A-39, 11-chloro-17-(hydroxymethyl)-2-methyl-6,7,8,9-tetrahydrobenzo[11,12][1,6]dioxacyclododecino[2,3-b:4,5-c′]dipyridin-3(2H)-one] | 15.7 nM | 173 nM
8 | CCS(=O)(=O)Nc1ccc2c(c1)-c1cn(C)c(=O)cc1OCC/C=C/c1cc(Cl)ccc1O2 [Example A-18, (E)-N-(11-chloro-2-methyl-3-oxo-2,3,6,7-tetrahydrodibenzo[4,5:7,8][1,6]dioxacyclododecino[3,2-c]pyridin-17-yl)ethanesulfonamide] | 4.06 nM | 8.87 nM
9 | CCS(=O)(=O)Nc1ccc2c(c1)-c1cn(C)c(=O)cc1OCCCCc1cc(F)ccc1O2 [Example A-49, N-(11-fluoro-2-methyl-3-oxo-2,3,6,7,8,9-hexahydrodibenzo[4,5:7,8][1,6]dioxacyclododecino[3,2-c]pyridin-17-yl)ethanesulfonamide] | 1.57 nM | 3.64 nM
10 | CCNC(=O)N1CCOc2cc(=O)n(C)cc2-c2cc(NS(=O)(=O)CC)ccc2Oc2ccc(Cl)cc2C1 [Example B-9, 11-chloro-N-ethyl-17-[(ethylsulfonyl)amino]-2-methyl-3-oxo-2,3,6,7-tetrahydrodibenzo[f,i]pyrido[3,4-k][1,8,4]dioxazacyclododecine-8(9H)-carboxamide] | 0.64 nM | 47.3 nM
11 | Cn1cc2c(cc1=O)OCCCCc1cc(C(F)(F)F)ccc1Oc1ccc(NS(C)(=O)=O)cc1-2 [Example A-51, N-(2-methyl-3-oxo-11-(trifluoromethyl)-2,3,6,7,8,9-hexahydrodibenzo[4,5:7,8][1,6]dioxacyclododecino[3,2-c]pyridin-17-yl)methanesulfonamide] | 1.72 nM | 14 nM

More lines, in order of falling Ki (BRD4 (BDI-BDII_K57-K550)), values ahead:

Row | Ki (BRD4 (BDI-BDII_K57-K550)) | EC50 [1] | SMILES
12 | 35.2 nM | 347 nM | CCNC(=O)Nc1ccc2c(c1)-c1cn(C)c(=O)cc1OCCCc1cc(Cl)ccc1O2 [Example A-10, 1-(10-chloro-2-methyl-3-oxo-3,6,7,8-tetrahydro-2H-dibenzo[4,5:7,8][1,6]dioxacycloundecino[3,2-c]pyridin-16-yl)-3-ethylurea]
13 | 24.3 nM | 302 nM | COC(=O)c1cnc2c(c1)-c1cn(C)c(=O)cc1OCCCCc1cc(Cl)ccc1O2 [Example A-31, methyl 11-chloro-2-methyl-3-oxo-2,3,6,7,8,9-hexahydrobenzo[11,12][1,6]dioxacyclododecino[2,3-b:4,5-c′]dipyridine-17-carboxylate]
14 | 9.45 nM | 25.1 nM | CCS(=O)(=O)Nc1ccc2c(c1)-c1cn(C)c(=O)cc1OCCNCc1cc(Cl)ccc1O2 [Example B-11, N-(11-chloro-2-methyl-3-oxo-2,3,6,7,8,9-hexahydrodibenzo[f,i]pyrido[3,4-k][1,8,4]dioxazacyclododecin-17-yl)ethanesulfonamide]
15 | 8.44 nM | 53.1 nM | CCS(=O)(=O)c1ccc2c(c1)-c1nn(C)c(=O)cc1OCCCCc1cc(F)cc(F)c1O2 [Example A-57, 17-(ethylsulfonyl)-11,13-difluoro-2-methyl-6,7,8,9-tetrahydrodibenzo[4,5:7,8][1,6]dioxacyclododecino[3,2-c]pyridazin-3(2H)-one]
16 | 6.09 nM | 23.7 nM | Cn1cc2c(cc1=O)OCCCCc1cc(Cl)ccc1Oc1ncc(CS(C)(=O)=O)cc1-2 [Example A-40, 11-chloro-2-methyl-17-((methylsulfonyl)methyl)-6,7,8,9-tetrahydrobenzo[11,12][1,6]dioxacyclododecino[2,3-b:4,5-c′]dipyridin-3(2H)-one]
17 | 5.37 nM | 30.6 nM | CC(=O)Nc1ccc2c(c1)-c1cn(C)c(=O)cc1OCCCc1cc(Cl)ccc1O2 [Example A-11, N-(10-chloro-2-methyl-3-oxo-3,6,7,8-tetrahydro-2H-dibenzo[4,5:7,8][1,6]dioxacycloundecino[3,2-c]pyridin-16-yl)acetamide]
18 | 2.22 nM | 16.8 nM | CCS(=O)(=O)Nc1ccc2c(c1)-c1cn(C)c(=O)cc1OCCN(CCC(F)(F)F)Cc1cc(Cl)ccc1O2 [Example B-13, N-[11-chloro-2-methyl-3-oxo-8-(3,3,3-trifluoropropyl)-2,3,6,7,8,9-hexahydrodibenzo[f,i]pyrido[3,4-k][1,8,4]dioxazacyclododecin-17-yl]ethanesulfonamide]
19 | 1.28 nM | > 1000 nM | CCS(=O)(=O)Nc1ccc2c(c1)-c1cn(C)c(=O)cc1OCCN(S(=O)(=O)NC(C)=O)Cc1cc(Cl)ccc1O2 [Example B-16, N-({11-chloro-17-[(ethylsulfonyl)amino]-2-methyl-3-oxo-2,3,6,7-tetrahydrodibenzo[f,i]pyrido[3,4-k][1,8,4]dioxazacyclododecin-8(9H)-yl}sulfonyl)acetamide]
20 | 1.27 nM | 7.86 nM | CCS(=O)(=O)c1ccc2c(c1)-c1cn(C)c(=O)cc1OCCCCc1ccc(F)cc1O2 [Example A-23, 17-(ethylsulfonyl)-12-fluoro-2-methyl-6,7,8,9-tetrahydrodibenzo[4,5:7,8][1,6]dioxacyclododecino[3,2-c]pyridin-3(2H)-one]
21 | 0.87 nM | 6.12 nM | CCS(=O)(=O)Nc1ccc2c(c1)-c1cn(C)c(=O)cc1OCCCCc1cc(OC(F)(F)F)ccc1O2 [Example A-37, N-[2-methyl-3-oxo-11-(trifluoromethoxy)-2,3,6,7,8,9-hexahydrodibenzo[4,5:7,8][1,6]dioxacyclododecino[3,2-c]pyridin-17-yl]ethanesulfonamide]
